Square brackets hold non-standard residues; d marks the D form. Peptide text beside a SMILES is read from it. * marks the point of attachment. Nle = CCCC[C@H](N)C(=O)O; Cbz = O=C(OCc1ccccc1)*; CH2F = FC*
Key:
Format in all cases: cell-based
[1] = test system: rat hepatic stellate cells; assay: Morphology and detachment of culture-activated rat hepatic stellate cells (light microscopy); details: rat HSC; for effect on morphologic alterations / detachment caused by gliotoxin: with 1.5 μmol/L gliotoxin, Z-VAD-FMK 100 μmol/L, PDTC 300 μmol/L, tamoxifen 100 μmol/L, m-IBG 250 (mmol/L in the source), quin-2-am 50 μmol/L
Text: Rat hepatic stellate cells (HSCs) were isolated by pronase/collagenase perfusion and purified by isopycnic density centrifugation in Opti-prep™ (Nycomed, Amersham, England) and elutriation essentially as previously described (Bahr et al., Hepatology (1999) 29:839-848). Human hepatic stellate cells were isolated from discarded resected liver via a similar protocol (Trim et al., J. Biol. Chem., (2000) 275:6657-6663). The use of human liver tissue for scientific investigation was approved by the UK South and West Local Research Ethics Committee and was subject to patient consent.
It has been shown recently that liver myofibroblasts may contribute to liver fibrogenesis and that liver myofibroblasts may have the potential to contaminate passaged hepatic stellate cell cultures (Knittel et al., Gastronenterology, (1999) 117:1205-1221). In this study, only primary cultures of hepatic stellate cells were used, which were desmin and glial fibrillary acid protein positive (markers shown to be expressed in hepatic stellate cells, but not liver myofibroblasts—Knittel et al., supra).
(§1) Cells were treated with gliotoxin dissolved in DMSO vehicle (added to medium from a 2000-fold molar concentrated stock). Control cells received DMSO vehicle only (i.e., 0.05% vol/vol). All other additions to culture medium were made from concentrated stocks dissolved in DMSO or by direct addition to culture medium. Protein contents of wells were determined using the Lowry assay (Lowry et al., J. Biol. Chem., (1951)193: 265-275).
Culture activated rat (14 day) and human (24 day) hepatic stellate cells were treated with DMSO solvent control or 1.5 μMol/L gliotoxin. […] Hepatic stellate cells changed from a flattened fibroblastic phenotype with distinct cell-cell interfaces to a substratum detached, rounded, and blebbed morphology.

[2] = test system: NF-kB DNA binding activity; assay: Electromobility shift assay for NF-kB DNA binding activity in rat hepatic stellate cells; details: activated rat HSC; for TNF-α-inducible NF-kB DNA binding activity: 10 ng/mL TNF-α, same concentrations as for constitutive activity; for constitutive NF-kB DNA binding activity: gliotoxin 1.5 μmol/L, N-acetyl cysteine 5 mM, calpain inhibitor 1 50 μM, dexamethasone 0.5 μm, pentoxyfilline 3.6 mM
Experimental: Crude high salt extractable nuclear protein was prepared from activated hepatic stellate cells for analysis of NF-kB DNA binding activity essentially as described (Elsharkawy et al., supra), aliquoted and stored at −80° C. until required. Extract protein concentrations were determined using the Lowry colorimetric assay (Lowry et al., supra) with bovine serum albumin as standard. A double stranded 5′ end labeled radiolabeled oligonucleotide [sense 5′-[…]-[…] (SEQ ID NO:1)] containing a consensus NF-kB DNA binding site as underlined (Baldwin et al., Annu. Rev. Immunol., (1996) 14:649-681) was used to determine NFkB DNA binding activity in crude nuclear extracts (Elsharkawy et al., supra).
The effect of gliotoxin on NF-kB activity in hepatic stellate cells was investigated. Culture-activated (14-day) rat hepatic stellate cells were incubated in the presence or absence of 10 ng/mL TNF-α fifteen minutes after addition of:
After a further 30 minutes, and before any significant morphologic changes, cells were washed with ice-cooled PBS, nuclear extracts prepared, and NF-kB DNA binding activity assessed by gel shift analysis. […] Each lane contained […] of protein and the results were the same for at least three separate experiments.

[3] = test system: caspase 3 activity in rat hepatic stellate cells; assay: Caspase 3 (Ac-DEVD-pNA cleavage) activity in rat hepatic stellate cells; details: 20 μmol/L Z-VAD-FMK with 1.5 μmol/L gliotoxin, three hours
Experimental: Hepatic stellate cells cultured in 100 mm diameter dishes (Greiner, Frickenhausen, Germany) were harvested and pelleted by centrifugation. The medium supernatant was discarded and the cell pellet was washed in 1 mL of ice-cooled phosphate buffered saline (PBS). Caspase 3 (DEVDase) activity was determined using a colorimetric CaspACE kit (Promega, Southampton, England) using the manufacturer's instructions.
Caspase 3 (Ac-DEVD-pNA cleavage) activity was then examined in control and gliotoxin-treated hepatic stellate cells. Culture activated rat hepatic stellate cells (14 days) in 100 mm diameter plates were treated with 0.05% (vol/vol) DMSO, 1.5 μmol/L gliotoxin, 20 μmol/L Z-VAD-FMK or 200 μmol/L chlorpromazine for three hours. The cells were then harvested for examination of caspase 3 activity as outlined in the materials and methods sections.

[4] = test system: rat hepatic stellate cells; assay: Low molecular weight DNA fragmentation (nucleosomal ladder) in rat hepatic stellate cells; details: four hours; for effect on gliotoxin-induced cleavage of DNA to a nucleosomal ladder: with 1.5 μmol/L gliotoxin, PDTC 300 μmol/L, tamoxifen 100 μmol/L, m-IBG 250 (mmol/L in the source), cyclosporin 10 μmol/L, quin-2-am 50 μmol/L
Experimental: (§2) Hepatic stellate cells cultured in 35-mm diameter dishes (Greiner) were harvested, pelleted by centrifugation and DNA fragmentation determined as outlined elsewhere (Elsharkawy et al., Hepatology (1999) 30:761-769). Propidium Iodide Flow-Activated Cell Sorting Analysis Detached cells were pelleted by centrifugation, washed in PBS, and resuspended in HYPO buffer (0.1% wt/vol) Na3Citrate and 0.1% (wt/vol) Triton™ X-100 containing […] propidium iodide and incubated for 1 hour. The cells were then analyzed by fluorescence-activated cell sorter (FACS) with a Becton Dickinson (San Jose, Calif.) FACScan instrument using a 488 nm excitation wavelength with a band pass filter set at 530 nm. Attached cells were scraped in HYPO buffer after washing cells with PBS.
The effect of gliotoxin on the cleavage of DNA to a nucleosomal ladder was examined because this phenomenon is characteristic of apoptosis. Culture activated (14-day) rat hepatic stellate cells in six well plates were treated with either 0.05% (vol/vol) DMSO for four hours or 1.5 μmol/L gliotoxin for zero hours, half an hour, one hour, two hours or four hours. At each time point, both detached and attached cells were harvested together and low molecular weight DNA (20,000 g supernatant) fragmentation determined as outlined in the materials and methods section. At least three separate experiments were performed. 1 kilobase DNA ladder (Promega) was used as a molecular weight marker.
The effect of various compounds on DNA laddering was then determined. Culture-activated (14-day) rat hepatic stellate cells in six-well plates were treated with:
After fours hours of treatment, DNA fragmentation was determined.
Culture activated (14 day) rat hepatic stellate cells in six well plates were treated with: • (a) 0.05% (vol/vol) DMSO; • (b) 1.5 μmol/L gliotoxin; • (c) 1.5 μmol/L gliotoxin with 100 μmol/L tamoxifen; • (d) 1.5 μmol/L gliotoxin with […] actinomycin d; • (e) 1.5 μmol/L gliotoxin with 10 μmol/L cycloheximide; • (f) 1.5 μmol/L gliotoxin with 10 μmol/L cyclosporin; • (g) 1.5 μmol/L gliotoxin with […] m-iodobenzylguanidine; • (h) 1.5 μmol/L gliotoxin with 50 μmol/L quin-2-am; • (i) 50 μmol/L guin-2-am alone; • (j) 250 μmol/L m-iodobenzylguanidine; • (k) 10 μmol/L cyclosporin; • (l) 10 μmol/L cycloheximide; • (m) 1 μg/ml actinomycin d; or • (n) 100 μmol/L tamoxifen.
After four hours of treatment, DNA fragmentation was determined as outlined in Materials and Methods.

rat hepatocytes [5] = assay: DNA laddering in rat hepatocytes; details: four hours; 50 μmol/L gliotoxin, 200 μmol/L chlorpromazine, 200 μmol/L methapyrilene, 10 ng/mL TNF-α with cycloheximide
Experimental: as §2
DNA laddering was also used to compare the effect of gliotoxin, chlorpromazine, methapyrilene and also the combination of TNF-α with cycloheximide on hepatocytes and hepatic stellate cells.

rat hepatocytes [6] = assay: Rat hepatocyte viability by attachment and trypan blue exclusion; details: 200 μmol/L, four hours
Experimental: Rat hepatocytes were isolated by collagenase perfusion essentially as previously described. (Harvey et al., Biochemical J., (1998) 331:273-281). Hepatocytes were cultured as outlined for hepatic stellate cells except that they were initially seeded onto collagen coated plates in William's medium E supplemented with 10% fetal calf serum and 1 μg/mL insulin for the first 2 hours.
as §1
The effect of various compounds on cell viability and attachment was determined. Viability of rat hepatocytes as judged by attachment and 0.1% (wt/vol) trypan blue exclusion after four hours treatment with: […]

Structure (SMILES) | TNF-α-inducible NF-kB DNA binding activity [2] | constitutive NF-kB DNA binding activity [2] | effect on morphologic alterations / detachment caused by gliotoxin [1] | effect on gliotoxin-induced cleavage of DNA to a nucleosomal ladder [4] | further results
CCCC[C@@H](C=O)NC(=O)[C@H](CC(C)C)NC(=O)[C@H](CC(C)C)NC(C)=O [Calpain inhibitor 1] (Ac-Leu-Leu-[Nle]-aldehyde) | inhibited the formation and altered the mobilities | inhibited the formation and altered the mobilities |  |  | apoptosis judged by morphologic and biochemical criteria (caspase 3 induction, nucleosomal ladder) ([1]; 50 μM calpain inhibitor 1): did not result in the apoptosis of rat hepatic stellate cells
CC(=O)N[C@@H](CS)C(=O)O [N-acetyl cysteine] | little effect | little effect |  |  | 
COC(=O)C[C@H](NC(=O)[C@H](C)NC(=O)[C@@H](NC(=O)OCc1ccccc1)C(C)C)C(=O)CF [Z-VAD-FMK, benzyloxycarbonyl-Val-Ala-Asp-fluoromethylketone] (Cbz-Val-Ala-Asp(OMe)-CH2F) |  |  | did not prevent the morphologic alterations caused by gliotoxin |  | effect on gliotoxin-induced caspase 3 activity [3]: inhibited by cotreatment; inhibition of gliotoxin-induced nucleosomal ladder ([4]; Z-VAD-FMK 1 μmol/L with 1.5 μmol/L gliotoxin): substantial inhibition; inhibition of gliotoxin-induced nucleosomal ladder ([4]; Z-VAD-FMK 100 and 10 (m/L printed) with 1.5 μmol/L gliotoxin): inhibited completely
N=C(N)NCc1cccc(I)c1 [m-iodobenzylguanidine] |  |  | did not prevent the detachment of hepatic stellate cells from the substratum | prevented the cleavage of DNA to a nucleosomal ladder | 
CN(C)CCN(Cc1cccs1)c1ccccn1 [methapyrilene] |  |  |  |  | cleavage of hepatocyte DNA to a nucleosomal ladder (rat hepatocytes [5]): only hepatocytes treated with TNF-α and cycloheximide cleaved their DNA to a nucleosomal ladder; hepatocytes that do not exclude trypan blue, compared with 50 μmol/L gliotoxin (rat hepatocytes [6]): a level similar
CC(=O)CCCCn1c(=O)c2c(ncn2C)n(C)c1=O [pentoxyfilline] | little effect | little effect |  |  | 
COc1cc(N(CC(=O)OCOC(C)=O)CC(=O)OCOC(C)=O)c2nc(COc3cc(C)ccc3N(CC(=O)OCOC(C)=O)CC(=O)OCOC(C)=O)ccc2c1 [quin-2AM] |  |  | without preventing cell detachment | blocks DNA cleavage | 
CC/C(=C(\c1ccccc1)c1ccc(OCCN(C)C)cc1)c1ccccc1 [tamoxifen] |  |  | did not prevent the detachment of hepatic stellate cells from the substratum | prevented the cleavage of DNA to a nucleosomal ladder | 

Reference: patent publication US20080220056A1, “Treatment for liver disease” (UNIVERSITY OF SOUTHAMPTON, priority 2002, published 2008)
